From patent US9809578B2, “Pyrazolyl urea, thiourea, guanidine and cyanoguanidine compounds as trkA kinase inhibitors” (Array BioPharma Inc., priority 2012, dated 2017)

Assays:
[1] = biological target: T1, EphB2 (Homo sapiens, UniProt P29323); test: KinaseProfiler EphB2; type: biochemical; conditions: 10 μM, ATP near Km
T1 construct: purchased Millipore, Inc. (KinaseProfiler service)
Excerpt: (§1) The compound was run in duplicate at a concentration of ATP near the Km for each individual kinase according to Millipore's specifications.

[2] = biological target: T2, PKCiota (Homo sapiens, UniProt P41743); test: KinaseProfiler PKCiota; type: biochemical; conditions: 10 μM, ATP near Km
T2 construct: purchased Millipore, Inc. (KinaseProfiler service)
T2 sequence (P41743 whole entry): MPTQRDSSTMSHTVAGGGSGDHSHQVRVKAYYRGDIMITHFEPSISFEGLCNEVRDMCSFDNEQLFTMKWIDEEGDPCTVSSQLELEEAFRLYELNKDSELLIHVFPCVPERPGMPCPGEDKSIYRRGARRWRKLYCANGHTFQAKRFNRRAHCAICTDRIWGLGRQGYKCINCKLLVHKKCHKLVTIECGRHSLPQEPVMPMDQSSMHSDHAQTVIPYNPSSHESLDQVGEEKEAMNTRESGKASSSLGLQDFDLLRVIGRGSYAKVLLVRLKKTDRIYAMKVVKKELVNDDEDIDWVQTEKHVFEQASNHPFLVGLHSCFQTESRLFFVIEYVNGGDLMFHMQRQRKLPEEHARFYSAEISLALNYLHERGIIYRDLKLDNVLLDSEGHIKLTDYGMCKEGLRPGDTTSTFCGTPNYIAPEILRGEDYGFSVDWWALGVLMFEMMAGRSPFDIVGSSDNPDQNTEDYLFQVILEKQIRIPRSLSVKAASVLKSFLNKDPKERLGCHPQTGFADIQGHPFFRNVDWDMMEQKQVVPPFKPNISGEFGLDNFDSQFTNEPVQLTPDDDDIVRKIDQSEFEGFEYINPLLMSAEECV
Excerpt: as §1

[3] = biological target: T3, CDK1/cyclinB (Homo sapiens, UniProt P06493); test: KinaseProfiler CDK1/cyclinB; type: biochemical; conditions: 10 μM, ATP near Km
T3 construct: purchased Millipore (KinaseProfiler service)
Excerpt: as §1

[4] = biological target: T4, IKKbeta (Homo sapiens, UniProt O14920); test: KinaseProfiler IKKbeta; type: biochemical; conditions: 10 μM, ATP near Km
T4 construct: purchased Millipore, Inc. (KinaseProfiler service)
T4 sequence (O14920 whole entry): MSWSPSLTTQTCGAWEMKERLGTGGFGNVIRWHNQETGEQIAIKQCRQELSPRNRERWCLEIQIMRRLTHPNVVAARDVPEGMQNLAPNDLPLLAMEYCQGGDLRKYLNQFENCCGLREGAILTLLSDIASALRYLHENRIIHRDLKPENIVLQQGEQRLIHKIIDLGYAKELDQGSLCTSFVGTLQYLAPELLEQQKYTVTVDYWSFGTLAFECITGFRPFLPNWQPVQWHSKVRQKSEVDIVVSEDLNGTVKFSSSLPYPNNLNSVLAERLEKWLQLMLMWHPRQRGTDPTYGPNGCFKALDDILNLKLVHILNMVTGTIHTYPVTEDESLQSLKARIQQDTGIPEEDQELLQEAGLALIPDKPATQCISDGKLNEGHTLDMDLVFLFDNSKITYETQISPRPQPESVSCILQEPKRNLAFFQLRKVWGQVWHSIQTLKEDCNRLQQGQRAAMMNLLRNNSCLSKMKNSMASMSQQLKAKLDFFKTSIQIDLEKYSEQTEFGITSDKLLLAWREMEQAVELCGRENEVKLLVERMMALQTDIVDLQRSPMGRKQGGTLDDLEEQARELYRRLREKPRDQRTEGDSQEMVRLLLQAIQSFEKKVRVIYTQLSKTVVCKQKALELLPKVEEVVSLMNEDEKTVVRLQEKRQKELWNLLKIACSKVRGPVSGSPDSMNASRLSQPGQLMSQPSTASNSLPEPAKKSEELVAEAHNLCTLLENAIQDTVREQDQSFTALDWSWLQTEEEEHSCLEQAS
Excerpt: as §1

[5] = biological target: T5, Yes (Homo sapiens, UniProt P07947); test: KinaseProfiler Yes; type: biochemical; conditions: 10 μM, ATP near Km
T5 construct: purchased Millipore, Inc. (KinaseProfiler service)
Excerpt: as §1

[6] = biological target: T6, PKCbetaI (Homo sapiens, UniProt P05771); test: KinaseProfiler PKCbetaI; type: biochemical; conditions: 10 μM, ATP near Km
T6 construct: purchased Millipore, Inc. (KinaseProfiler service)
Excerpt: as §1

[7] = biological target: T7, HIPK1 (Homo sapiens, UniProt Q86Z02); test: KinaseProfiler HIPK1; type: biochemical; conditions: 10 μM, ATP near Km
T7 construct: purchased Millipore, Inc. (KinaseProfiler service)
Excerpt: as §1

[8] = biological target: T8, CAMK2b (Homo sapiens, UniProt Q13554); test: KinaseProfiler CAMK2b; type: biochemical; conditions: 10 μM, ATP near Km
T8 construct: purchased Millipore (KinaseProfiler service)
Excerpt: as §1

[9] = biological target: T9, EphA7 (Homo sapiens, UniProt Q15375); test: KinaseProfiler EphA7; type: biochemical; conditions: 10 μM, ATP near Km
T9 construct: purchased Millipore, Inc. (KinaseProfiler service)
Excerpt: as §1

[10] = biological target: T10, p38gamma (Homo sapiens, UniProt P53778); test: KinaseProfiler p38gamma; type: biochemical; conditions: 10 μM, ATP near Km
T10 construct: purchased Millipore, Inc. (KinaseProfiler service)
Excerpt: as §1

[11] = biological target: T11, EphB1 (Homo sapiens, UniProt P54762); test: KinaseProfiler EphB1; type: biochemical; conditions: 10 μM, ATP near Km
T11 construct: purchased Millipore, Inc. (KinaseProfiler service)
Excerpt: as §1

[12] = biological target: T12, CDK5/p35 (Homo sapiens, UniProt Q00535); test: KinaseProfiler CDK5/p35; type: biochemical; conditions: 10 μM, ATP near Km
T12 construct: purchased Millipore, Inc. (KinaseProfiler service)
Excerpt: as §1

[13] = biological target: T13, EphA5 (Homo sapiens, UniProt P54756); test: KinaseProfiler EphA5; type: biochemical; conditions: 10 μM, ATP near Km
T13 construct: purchased Millipore, Inc. (KinaseProfiler service)
T13 sequence (P54756 25-1037): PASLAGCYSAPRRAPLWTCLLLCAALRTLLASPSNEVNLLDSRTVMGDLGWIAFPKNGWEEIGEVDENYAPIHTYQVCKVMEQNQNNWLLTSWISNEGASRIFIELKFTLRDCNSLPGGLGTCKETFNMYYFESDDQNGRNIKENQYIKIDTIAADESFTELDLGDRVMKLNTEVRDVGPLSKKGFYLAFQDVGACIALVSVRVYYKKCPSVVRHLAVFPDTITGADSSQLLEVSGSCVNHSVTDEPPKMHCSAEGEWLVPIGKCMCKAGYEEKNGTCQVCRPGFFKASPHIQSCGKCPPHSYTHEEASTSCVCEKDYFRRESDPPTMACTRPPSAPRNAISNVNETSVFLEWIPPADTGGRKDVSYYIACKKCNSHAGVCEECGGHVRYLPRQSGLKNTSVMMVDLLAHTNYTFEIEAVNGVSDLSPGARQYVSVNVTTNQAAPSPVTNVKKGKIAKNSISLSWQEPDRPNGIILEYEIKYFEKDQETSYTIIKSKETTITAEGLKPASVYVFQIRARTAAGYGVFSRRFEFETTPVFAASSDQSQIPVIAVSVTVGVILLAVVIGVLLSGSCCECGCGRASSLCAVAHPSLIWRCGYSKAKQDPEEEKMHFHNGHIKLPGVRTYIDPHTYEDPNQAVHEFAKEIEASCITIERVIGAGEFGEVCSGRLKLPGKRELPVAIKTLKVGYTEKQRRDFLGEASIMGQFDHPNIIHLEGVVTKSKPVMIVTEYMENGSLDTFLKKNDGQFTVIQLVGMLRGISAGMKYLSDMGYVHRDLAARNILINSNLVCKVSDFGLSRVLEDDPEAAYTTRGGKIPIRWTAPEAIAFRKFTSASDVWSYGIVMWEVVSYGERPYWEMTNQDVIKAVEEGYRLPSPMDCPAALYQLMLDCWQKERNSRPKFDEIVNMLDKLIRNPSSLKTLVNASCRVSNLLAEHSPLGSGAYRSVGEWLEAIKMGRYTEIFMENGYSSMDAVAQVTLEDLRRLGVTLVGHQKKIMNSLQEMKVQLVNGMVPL
Excerpt: as §1

[14] = biological target: T14, ROCK-I (Homo sapiens, UniProt Q13464); test: KinaseProfiler ROCK-I; type: biochemical; conditions: 10 μM, ATP near Km
T14 construct: purchased Millipore, Inc. (KinaseProfiler service)
Excerpt: as §1

[15] = biological target: T15, PTK6 (Homo sapiens, UniProt Q13882); test: KinaseProfiler PTK6; type: biochemical; conditions: 10 μM, ATP near Km
T15 construct: purchased Millipore, Inc. (KinaseProfiler service)
Excerpt: as §1

[16] = biological target: T16, BTK (Homo sapiens, UniProt Q06187); test: KinaseProfiler BTK; type: biochemical; conditions: 10 μM, ATP near Km
T16 construct: purchased Millipore (KinaseProfiler service)
T16 sequence (Q06187 whole entry): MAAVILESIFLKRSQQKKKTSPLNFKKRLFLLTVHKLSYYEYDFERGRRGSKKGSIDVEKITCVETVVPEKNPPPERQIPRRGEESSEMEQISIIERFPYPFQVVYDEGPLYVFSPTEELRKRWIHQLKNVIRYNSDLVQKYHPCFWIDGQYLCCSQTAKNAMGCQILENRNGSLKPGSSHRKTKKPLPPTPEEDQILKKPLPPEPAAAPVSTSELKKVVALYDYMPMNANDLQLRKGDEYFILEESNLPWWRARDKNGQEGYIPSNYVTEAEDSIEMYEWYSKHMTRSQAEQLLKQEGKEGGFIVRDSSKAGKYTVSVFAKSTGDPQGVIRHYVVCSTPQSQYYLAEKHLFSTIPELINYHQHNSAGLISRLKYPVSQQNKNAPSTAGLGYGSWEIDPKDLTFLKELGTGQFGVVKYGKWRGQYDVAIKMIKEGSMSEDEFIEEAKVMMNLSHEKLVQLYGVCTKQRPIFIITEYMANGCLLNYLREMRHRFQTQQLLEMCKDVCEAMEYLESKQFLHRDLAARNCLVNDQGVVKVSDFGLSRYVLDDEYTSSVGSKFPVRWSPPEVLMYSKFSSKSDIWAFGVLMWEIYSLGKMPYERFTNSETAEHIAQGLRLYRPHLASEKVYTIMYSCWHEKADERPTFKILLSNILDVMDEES
Excerpt: as §1

[17] = biological target: T17, TLK2 (Homo sapiens, UniProt Q86UE8); test: KinaseProfiler TLK2; type: biochemical; conditions: 10 μM, ATP near Km
T17 construct: purchased Millipore, Inc. (KinaseProfiler service)
Excerpt: as §1

[18] = biological target: T18, TSSK1 (Homo sapiens, UniProt Q9BXA7); test: KinaseProfiler TSSK1; type: biochemical; conditions: 10 μM, ATP near Km
T18 construct: purchased Millipore, Inc. (KinaseProfiler service)
T18 sequence (Q9BXA7 whole entry): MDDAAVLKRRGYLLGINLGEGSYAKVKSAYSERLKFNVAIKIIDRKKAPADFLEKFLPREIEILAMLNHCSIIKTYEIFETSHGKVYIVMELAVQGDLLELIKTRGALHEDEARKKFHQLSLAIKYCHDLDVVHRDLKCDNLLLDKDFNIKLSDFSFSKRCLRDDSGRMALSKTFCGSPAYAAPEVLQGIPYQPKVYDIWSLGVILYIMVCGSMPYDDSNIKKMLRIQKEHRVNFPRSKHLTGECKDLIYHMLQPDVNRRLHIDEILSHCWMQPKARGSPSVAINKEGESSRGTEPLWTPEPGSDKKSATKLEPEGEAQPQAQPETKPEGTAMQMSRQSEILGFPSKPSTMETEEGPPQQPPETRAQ
Excerpt: as §1

[19] = biological target: T19, PKD2 (Homo sapiens, UniProt Q9BZL6); test: KinaseProfiler PKD2; type: biochemical; conditions: 10 μM, ATP near Km
T19 construct: purchased Millipore, Inc. (KinaseProfiler service)
Excerpt: as §1

[20] = biological target: T20, ULK3 (Homo sapiens, UniProt Q6PHR2); test: KinaseProfiler ULK3; type: biochemical; conditions: 10 μM, ATP near Km
T20 construct: purchased Millipore, Inc. (KinaseProfiler service)
Excerpt: as §1

[21] = biological target: T21, GRK7 (Homo sapiens, UniProt Q8WTQ7); test: KinaseProfiler GRK7; type: biochemical; conditions: 10 μM, ATP near Km
T21 construct: purchased Millipore, Inc. (KinaseProfiler service)
Excerpt: as §1

[22] = biological target: T22, TAO2 (Homo sapiens, UniProt Q9UL54); test: KinaseProfiler TAO2; type: biochemical; conditions: 10 μM, ATP near Km
T22 construct: purchased Millipore, Inc. (KinaseProfiler service)
Excerpt: as §1

[23] = biological target: T23, PKCalpha (Homo sapiens, UniProt P17252); test: KinaseProfiler PKCalpha; type: biochemical; conditions: 10 μM, ATP near Km
T23 construct: purchased Millipore, Inc. (KinaseProfiler service)
Excerpt: as §1

[24] = biological target: T24, AMPK(A1/B1/G1) (Homo sapiens, UniProt Q13131); test: KinaseProfiler AMPK(A1/B1/G1); type: biochemical; conditions: 10 μM, ATP near Km
T24 construct: purchased Millipore (KinaseProfiler service)
Excerpt: as §1

[25] = biological target: T25, PAK6 (Homo sapiens, UniProt Q9NQU5); test: KinaseProfiler PAK6; type: biochemical; conditions: 10 μM, ATP near Km
T25 construct: purchased Millipore, Inc. (KinaseProfiler service)
T25 sequence (Q9NQU5 whole entry): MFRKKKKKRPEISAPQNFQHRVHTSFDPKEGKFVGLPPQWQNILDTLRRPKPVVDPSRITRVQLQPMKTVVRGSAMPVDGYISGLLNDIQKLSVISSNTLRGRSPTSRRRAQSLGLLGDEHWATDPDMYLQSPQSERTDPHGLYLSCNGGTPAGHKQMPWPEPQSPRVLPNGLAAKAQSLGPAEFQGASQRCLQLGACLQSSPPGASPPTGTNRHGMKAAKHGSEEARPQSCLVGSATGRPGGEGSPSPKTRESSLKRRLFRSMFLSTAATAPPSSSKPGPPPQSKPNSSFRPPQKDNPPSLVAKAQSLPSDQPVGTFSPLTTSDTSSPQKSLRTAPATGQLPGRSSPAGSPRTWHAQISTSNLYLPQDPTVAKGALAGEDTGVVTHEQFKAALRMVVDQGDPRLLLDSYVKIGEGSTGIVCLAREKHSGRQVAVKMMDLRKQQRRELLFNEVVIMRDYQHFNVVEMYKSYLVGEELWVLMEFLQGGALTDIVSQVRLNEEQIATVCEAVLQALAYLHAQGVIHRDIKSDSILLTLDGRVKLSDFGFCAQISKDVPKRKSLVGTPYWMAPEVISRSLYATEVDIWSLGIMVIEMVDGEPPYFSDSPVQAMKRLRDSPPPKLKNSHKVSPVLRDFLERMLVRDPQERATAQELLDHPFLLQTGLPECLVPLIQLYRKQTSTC
Excerpt: as §1

[26] = biological target: T26, GRK6 (Homo sapiens, UniProt P43250); test: KinaseProfiler GRK6; type: biochemical; conditions: 10 μM, ATP near Km
T26 construct: purchased Millipore, Inc. (KinaseProfiler service)
Excerpt: as §1

[27] = test system: off-target kinases; conditions: 10 μM
Excerpt: as §1

[28] = biological target: T27, AKT1 (Homo sapiens, UniProt P31749); test: KinaseProfiler AKT1; type: biochemical; conditions: 10 μM, ATP near Km
T27 construct: purchased Millipore (KinaseProfiler service)
Excerpt: as §1

[29] = biological target: T28, MEK1 (Homo sapiens, UniProt Q02750); test: KinaseProfiler MEK1; type: biochemical; conditions: 10 μM, ATP near Km
T28 construct: purchased Millipore, Inc. (KinaseProfiler service)
Excerpt: as §1

[30] = biological target: T29, MINK (Homo sapiens, UniProt Q8N4C8); test: KinaseProfiler MINK; type: biochemical; conditions: 10 μM, ATP near Km
T29 construct: purchased Millipore, Inc. (KinaseProfiler service)
Excerpt: as §1

[31] = biological target: T30, EGFR (Homo sapiens, UniProt P00533); test: KinaseProfiler EGFR; type: biochemical; conditions: 10 μM, ATP near Km
T30 construct: purchased Millipore, Inc. (KinaseProfiler service)
Excerpt: as §1

[32] = biological target: T31, DAPK3 (Homo sapiens, UniProt O43293); test: KinaseProfiler DAPK3; type: biochemical; conditions: 10 μM, ATP near Km
T31 construct: purchased Millipore, Inc. (KinaseProfiler service)
Excerpt: as §1

[33] = biological target: T32, PRKG1beta (Homo sapiens, UniProt Q13976); test: KinaseProfiler PRKG1beta; type: biochemical; conditions: 10 μM, ATP near Km
T32 construct: purchased Millipore, Inc. (KinaseProfiler service)
Excerpt: as §1

[34] = biological target: T33, DMPK (Homo sapiens, UniProt Q09013); test: KinaseProfiler DMPK; type: biochemical; conditions: 10 μM, ATP near Km
T33 construct: purchased Millipore, Inc. (KinaseProfiler service)
Excerpt: as §1

[35] = biological target: T34, FAK (Homo sapiens, UniProt Q05397); test: KinaseProfiler FAK; type: biochemical; conditions: 10 μM, ATP near Km
T34 construct: purchased Millipore, Inc. (KinaseProfiler service)
Excerpt: as §1

[36] = biological target: T35, PDGFRbeta (Homo sapiens, UniProt P09619); test: KinaseProfiler PDGFRbeta; type: biochemical; conditions: 10 μM, ATP near Km
T35 construct: purchased Millipore, Inc. (KinaseProfiler service)
Excerpt: as §1

[37] = biological target: T36, PKCdelta (Homo sapiens, UniProt Q05655); test: KinaseProfiler PKCdelta; type: biochemical; conditions: 10 μM, ATP near Km
T36 construct: purchased Millipore, Inc. (KinaseProfiler service)
Excerpt: as §1

[38] = biological target: T37, Rsk4 (Homo sapiens, UniProt Q9UK32); test: KinaseProfiler Rsk4; type: biochemical; conditions: 10 μM, ATP near Km
T37 construct: purchased Millipore, Inc. (KinaseProfiler service)
T37 sequence (Q9UK32 whole entry): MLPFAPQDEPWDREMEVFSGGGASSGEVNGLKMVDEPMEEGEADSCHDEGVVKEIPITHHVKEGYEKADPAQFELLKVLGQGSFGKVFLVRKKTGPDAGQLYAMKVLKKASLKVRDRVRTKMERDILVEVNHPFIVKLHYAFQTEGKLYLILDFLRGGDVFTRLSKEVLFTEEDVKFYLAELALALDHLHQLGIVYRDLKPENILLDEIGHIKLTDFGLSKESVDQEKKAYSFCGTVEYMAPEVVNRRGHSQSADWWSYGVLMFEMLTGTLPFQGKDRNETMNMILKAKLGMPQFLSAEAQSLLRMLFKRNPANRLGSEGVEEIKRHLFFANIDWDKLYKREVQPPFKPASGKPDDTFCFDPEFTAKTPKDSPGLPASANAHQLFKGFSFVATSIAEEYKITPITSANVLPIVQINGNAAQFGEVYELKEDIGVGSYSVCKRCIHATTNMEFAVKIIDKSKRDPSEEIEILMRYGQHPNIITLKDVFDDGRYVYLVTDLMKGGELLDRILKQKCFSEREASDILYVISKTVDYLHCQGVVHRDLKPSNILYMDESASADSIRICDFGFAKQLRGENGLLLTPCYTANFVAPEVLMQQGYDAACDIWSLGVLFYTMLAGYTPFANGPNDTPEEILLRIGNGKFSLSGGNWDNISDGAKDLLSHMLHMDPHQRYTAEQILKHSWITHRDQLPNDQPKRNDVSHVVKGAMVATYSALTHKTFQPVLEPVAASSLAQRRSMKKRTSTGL
Excerpt: as §1

[39] = biological target: T38, His-tagged recombinant human TrkA (Homo sapiens, UniProt P04629); test: TrkA LanthaScreen Eu Kinase Binding Assay
T38 construct: 6HIS tagged cytoplasmic domain from Invitrogen, Cat. No. PV3144; purchased Invitrogen PV3144
Experimental: TrkA binding activity was determined in a TrkA LanthaScreen™ Eu Kinase Binding Assay. […] Three fold serial dilutions of compounds of the invention in DMSO were added to a final percentage of 2% DMSO. […] The percent of control was calculated using a ratiometric emission factor. The IC50 values were determined by fitting a four parameter model to the percent of control data.

[40] = biological target: T39, JNK3 (Homo sapiens, UniProt P53779); test: KinaseProfiler JNK3; type: biochemical; conditions: 10 μM, ATP near Km
T39 construct: purchased Millipore, Inc. (KinaseProfiler service)
Excerpt: as §1

## Cc1c(-c2cnn(C)c2)nn(-c2ccccc2)c1NC(=O)Nc1cc(C(F)(F)F)nn1-c1ccccc1 [Example 3, 1-(1′,4-dimethyl-1-phenyl-1H,1′H-[3,4′-bipyrazol]-5-yl)-3-(1-phenyl-3-(trifluoromethyl)-1H-pyrazol-5-yl)urea]
[1]
  Avg POC: 118.5 POC
[2]
  Avg POC: 69.5 POC
[3]
  Avg POC: 102.5 POC
[4]
  Avg POC: 123 POC
[5]
  Avg POC: 114 POC
[6]
  Avg POC: 87 POC
[7]
  Avg POC: 115.5 POC
[8]
  Avg POC: 96.5 POC
[9]
  Avg POC: 91 POC
[10]
  Avg POC: 114.5 POC
[11]
  Avg POC: 122 POC
[12]
  Avg POC: 110.5 POC
[13]
  Avg POC: 116 POC
[14]
  Avg POC: 115 POC
[15]
  Avg POC: 110 POC
[16]
  Avg POC: 123 POC
[17]
  Avg POC: 108.5 POC
[18]
  Avg POC: 83.5 POC
[19]
  Avg POC: 115 POC
[20]
  Avg POC: 90.5 POC
[21]
  Avg POC: 104.5 POC
[22]
  Avg POC: 108 POC
[23]
  Avg POC: 104 POC
[24]
  Avg POC: 149.5 POC
[25]
  Avg POC: 167 POC
[26]
  Avg POC: 105 POC
[27]
  activity against off-target kinases: largely inactive
[28]
  Avg POC: 103.5 POC
[29]
  Avg POC: 111 POC
[30]
  Avg POC: 105 POC
[31]
  Avg POC: 97.5 POC
[32]
  Avg POC: 118.5 POC
[33]
  Avg POC: 98 POC
[34]
  Avg POC: 105 POC
[35]
  Avg POC: 105.5 POC
[36]
  Avg POC: 175 POC
[37]
  Avg POC: 98.5 POC
[38]
  Avg POC: 99 POC
[39]
  IC50: < 100 nM
[40]
  Avg POC: 124.5 POC
